Columns and labels:
[1] = biological target: T1, 5-hydroxytryptamine receptor 2C (Homo sapiens, UniProt P28335); experiment: Binding affinity for human cloned 5-hydroxytryptamine 2C receptor expressed in CHO cells using [3H]mesulergine as radioligand; format: cell-based
T1 sequence (P28335 whole entry): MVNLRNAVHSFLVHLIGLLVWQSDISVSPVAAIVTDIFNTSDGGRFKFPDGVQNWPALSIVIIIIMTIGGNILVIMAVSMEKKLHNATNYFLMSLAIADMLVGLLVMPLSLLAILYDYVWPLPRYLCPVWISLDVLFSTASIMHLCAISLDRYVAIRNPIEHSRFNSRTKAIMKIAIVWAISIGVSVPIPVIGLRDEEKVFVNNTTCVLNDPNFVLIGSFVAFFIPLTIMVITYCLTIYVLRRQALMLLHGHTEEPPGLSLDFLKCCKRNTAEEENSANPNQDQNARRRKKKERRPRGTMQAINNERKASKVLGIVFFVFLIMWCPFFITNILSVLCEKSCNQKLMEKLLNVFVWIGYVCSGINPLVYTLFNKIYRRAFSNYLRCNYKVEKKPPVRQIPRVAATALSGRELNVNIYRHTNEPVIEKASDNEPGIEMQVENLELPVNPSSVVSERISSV

[2] = biological target: 5-hydroxytryptamine receptor 2A (Homo sapiens, UniProt P28223); experiment: biochemical; format: cell-based, L929
Chain of 5-hydroxytryptamine receptor 2A (P28223 whole entry): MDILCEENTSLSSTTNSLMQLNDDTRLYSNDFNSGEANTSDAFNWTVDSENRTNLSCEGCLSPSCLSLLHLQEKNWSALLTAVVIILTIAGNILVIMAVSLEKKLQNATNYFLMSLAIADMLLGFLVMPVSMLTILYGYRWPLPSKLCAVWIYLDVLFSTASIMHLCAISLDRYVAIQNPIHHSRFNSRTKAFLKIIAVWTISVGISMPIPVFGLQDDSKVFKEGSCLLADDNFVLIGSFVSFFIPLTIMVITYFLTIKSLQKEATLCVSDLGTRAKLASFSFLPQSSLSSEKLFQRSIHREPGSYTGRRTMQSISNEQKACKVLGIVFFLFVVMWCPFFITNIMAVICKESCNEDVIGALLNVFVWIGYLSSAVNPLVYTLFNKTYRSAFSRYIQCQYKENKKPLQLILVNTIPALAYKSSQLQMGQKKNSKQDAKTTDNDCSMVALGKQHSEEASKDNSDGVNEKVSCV
Description: Binding affinity for human cloned 5-hydroxytryptamine 2A receptor expressed in L929 cells using [125I]R91150 as radioligand

Rattus norvegicus = experiment: In vivo activity in mCPP challenge test were performed in male Wistar rats by subcutaneous administration; format: functional
[3] = biological target: T2, 5-hydroxytryptamine receptor 2C (Rattus norvegicus) (UniProt P08909); experiment: In vivo activity in rat mCPP challenge test following p.o. administration.; format: functional, organism-based
T2 sequence (whole entry): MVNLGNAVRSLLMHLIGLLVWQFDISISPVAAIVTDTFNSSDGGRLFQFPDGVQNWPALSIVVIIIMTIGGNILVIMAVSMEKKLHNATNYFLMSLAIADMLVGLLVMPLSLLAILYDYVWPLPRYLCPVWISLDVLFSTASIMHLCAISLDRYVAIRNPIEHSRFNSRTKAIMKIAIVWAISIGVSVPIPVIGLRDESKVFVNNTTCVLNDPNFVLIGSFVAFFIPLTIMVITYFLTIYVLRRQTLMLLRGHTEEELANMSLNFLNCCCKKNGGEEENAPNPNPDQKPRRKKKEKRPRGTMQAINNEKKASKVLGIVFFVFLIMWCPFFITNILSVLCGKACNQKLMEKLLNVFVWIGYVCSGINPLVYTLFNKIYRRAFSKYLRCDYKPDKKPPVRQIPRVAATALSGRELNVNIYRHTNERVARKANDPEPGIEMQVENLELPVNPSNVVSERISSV

Histamine H1 receptor = Histamine H1 receptor (Homo sapiens, UniProt P35367); experiment: Binding affinity for human cloned Histamine H1 receptor expressed in CHO cells using [3H]pyrilamine as radioligand; format: cell-based
Chain of Histamine H1 receptor (P35367 whole entry): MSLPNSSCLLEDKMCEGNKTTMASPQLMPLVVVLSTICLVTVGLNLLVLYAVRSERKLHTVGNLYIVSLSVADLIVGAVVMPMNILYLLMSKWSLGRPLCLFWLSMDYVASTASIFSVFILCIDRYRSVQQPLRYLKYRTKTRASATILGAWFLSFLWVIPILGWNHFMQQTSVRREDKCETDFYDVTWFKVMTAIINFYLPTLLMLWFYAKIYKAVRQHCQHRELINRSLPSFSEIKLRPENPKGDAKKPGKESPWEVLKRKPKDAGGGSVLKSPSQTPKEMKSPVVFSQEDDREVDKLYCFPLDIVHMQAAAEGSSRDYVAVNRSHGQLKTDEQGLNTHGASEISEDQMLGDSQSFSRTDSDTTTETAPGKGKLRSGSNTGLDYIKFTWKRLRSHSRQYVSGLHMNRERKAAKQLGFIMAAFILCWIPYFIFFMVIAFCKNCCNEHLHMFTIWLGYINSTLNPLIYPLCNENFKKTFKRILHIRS

D(4) dopamine receptor = biological target: T3, D(4) dopamine receptor (Homo sapiens, UniProt P21917); experiment: Binding affinity for human cloned Dopamine receptor D4
T3 sequence (P21917 whole entry): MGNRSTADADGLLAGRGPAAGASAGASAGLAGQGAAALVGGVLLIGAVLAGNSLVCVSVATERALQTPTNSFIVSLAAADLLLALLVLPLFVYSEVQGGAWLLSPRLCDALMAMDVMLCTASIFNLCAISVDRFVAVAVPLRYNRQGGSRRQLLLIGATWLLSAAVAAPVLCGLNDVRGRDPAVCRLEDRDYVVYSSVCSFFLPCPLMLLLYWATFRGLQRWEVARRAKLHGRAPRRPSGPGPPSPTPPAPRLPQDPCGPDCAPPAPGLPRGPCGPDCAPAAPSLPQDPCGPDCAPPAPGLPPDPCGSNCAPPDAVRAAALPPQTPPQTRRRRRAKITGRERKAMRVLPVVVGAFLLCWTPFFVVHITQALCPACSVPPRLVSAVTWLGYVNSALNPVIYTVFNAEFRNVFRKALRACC

[4] = biological target: T4, 5-hydroxytryptamine receptor 1A (Homo sapiens, UniProt P08908); experiment: Binding affinity for human cloned 5-hydroxytryptamine 1A receptor
T4 sequence (P08908 whole entry): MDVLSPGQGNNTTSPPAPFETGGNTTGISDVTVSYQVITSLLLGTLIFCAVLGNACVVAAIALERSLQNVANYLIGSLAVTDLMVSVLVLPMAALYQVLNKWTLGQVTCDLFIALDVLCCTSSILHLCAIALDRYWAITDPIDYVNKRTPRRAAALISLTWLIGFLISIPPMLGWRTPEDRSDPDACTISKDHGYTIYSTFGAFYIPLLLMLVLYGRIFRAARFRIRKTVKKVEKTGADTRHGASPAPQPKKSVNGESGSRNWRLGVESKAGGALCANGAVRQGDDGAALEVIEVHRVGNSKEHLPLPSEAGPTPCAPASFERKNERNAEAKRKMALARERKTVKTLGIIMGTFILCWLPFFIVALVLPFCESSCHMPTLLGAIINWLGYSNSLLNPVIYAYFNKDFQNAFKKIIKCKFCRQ

[5] = biological target: T5, Alpha-1A adrenergic receptor (Homo sapiens, UniProt P35348); experiment: Binding affinity for human cloned Alpha-1A adrenergic receptor
T5 sequence (P35348 whole entry): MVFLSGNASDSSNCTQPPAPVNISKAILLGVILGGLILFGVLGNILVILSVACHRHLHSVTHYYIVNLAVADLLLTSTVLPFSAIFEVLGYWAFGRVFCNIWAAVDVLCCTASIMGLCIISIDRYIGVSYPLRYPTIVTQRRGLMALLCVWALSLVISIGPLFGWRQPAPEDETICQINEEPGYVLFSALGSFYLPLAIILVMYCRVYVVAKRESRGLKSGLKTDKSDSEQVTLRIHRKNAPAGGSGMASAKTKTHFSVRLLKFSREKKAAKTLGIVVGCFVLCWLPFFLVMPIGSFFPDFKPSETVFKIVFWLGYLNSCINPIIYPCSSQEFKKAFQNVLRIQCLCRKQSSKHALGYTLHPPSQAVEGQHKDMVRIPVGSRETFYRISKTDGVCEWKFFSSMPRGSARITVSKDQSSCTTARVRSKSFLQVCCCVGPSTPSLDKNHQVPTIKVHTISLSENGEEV

D(2) dopamine receptor [6] = biological target: D(2) dopamine receptor (Homo sapiens, UniProt P14416); experiment: Binding affinity for human cloned Dopamine receptor D2L
Chain of D(2) dopamine receptor (Homo sapiens, UniProt P14416) (P14416 whole entry): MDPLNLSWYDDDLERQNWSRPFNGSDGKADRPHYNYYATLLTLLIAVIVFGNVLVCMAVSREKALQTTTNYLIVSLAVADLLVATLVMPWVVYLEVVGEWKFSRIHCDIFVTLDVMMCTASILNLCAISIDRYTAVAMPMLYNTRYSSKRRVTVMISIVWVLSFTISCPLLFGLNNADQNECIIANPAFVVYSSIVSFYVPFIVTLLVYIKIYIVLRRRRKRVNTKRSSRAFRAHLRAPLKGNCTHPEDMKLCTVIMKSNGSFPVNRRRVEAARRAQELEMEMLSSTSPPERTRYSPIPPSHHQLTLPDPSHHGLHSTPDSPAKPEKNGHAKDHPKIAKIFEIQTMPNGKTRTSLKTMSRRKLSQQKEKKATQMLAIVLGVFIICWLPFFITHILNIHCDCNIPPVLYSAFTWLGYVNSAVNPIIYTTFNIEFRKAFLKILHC

[7] = biological target: T6, Alpha-2C adrenergic receptor (Homo sapiens, UniProt P18825); experiment: Binding affinity for human cloned Alpha-2C adrenergic receptor
T6 sequence (P18825 whole entry): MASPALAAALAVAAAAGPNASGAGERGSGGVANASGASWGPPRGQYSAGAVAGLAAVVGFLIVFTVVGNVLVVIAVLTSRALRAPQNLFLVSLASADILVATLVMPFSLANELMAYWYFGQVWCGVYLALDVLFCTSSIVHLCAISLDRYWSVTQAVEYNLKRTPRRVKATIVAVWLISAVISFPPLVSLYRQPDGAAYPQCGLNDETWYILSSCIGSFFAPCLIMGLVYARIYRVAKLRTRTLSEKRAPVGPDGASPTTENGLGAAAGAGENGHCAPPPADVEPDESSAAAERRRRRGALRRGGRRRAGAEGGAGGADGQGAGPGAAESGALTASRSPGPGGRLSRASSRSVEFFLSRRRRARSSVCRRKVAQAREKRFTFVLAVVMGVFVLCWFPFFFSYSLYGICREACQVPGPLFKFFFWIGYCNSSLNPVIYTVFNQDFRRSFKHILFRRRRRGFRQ

[8] = biological target: 5-hydroxytryptamine receptor 1D (Homo sapiens, UniProt P28221); experiment: Binding affinity for human cloned 5-hydroxytryptamine 1D receptor
Chain of 5-hydroxytryptamine receptor 1D (P28221 whole entry): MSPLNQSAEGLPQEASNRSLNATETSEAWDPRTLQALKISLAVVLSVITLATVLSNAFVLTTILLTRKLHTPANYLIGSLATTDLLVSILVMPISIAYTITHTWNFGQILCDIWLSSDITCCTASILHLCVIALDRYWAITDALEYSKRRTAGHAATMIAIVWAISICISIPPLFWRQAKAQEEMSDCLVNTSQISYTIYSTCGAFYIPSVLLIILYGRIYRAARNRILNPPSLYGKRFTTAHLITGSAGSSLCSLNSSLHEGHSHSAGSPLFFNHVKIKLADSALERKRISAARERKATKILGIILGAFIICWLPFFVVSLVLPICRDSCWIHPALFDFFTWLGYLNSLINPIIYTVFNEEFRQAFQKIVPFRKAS

D(3) dopamine receptor = D(3) dopamine receptor (Homo sapiens, UniProt P35462); experiment: Binding affinity for human cloned Dopamine receptor D3
Chain of D(3) dopamine receptor (P35462 whole entry): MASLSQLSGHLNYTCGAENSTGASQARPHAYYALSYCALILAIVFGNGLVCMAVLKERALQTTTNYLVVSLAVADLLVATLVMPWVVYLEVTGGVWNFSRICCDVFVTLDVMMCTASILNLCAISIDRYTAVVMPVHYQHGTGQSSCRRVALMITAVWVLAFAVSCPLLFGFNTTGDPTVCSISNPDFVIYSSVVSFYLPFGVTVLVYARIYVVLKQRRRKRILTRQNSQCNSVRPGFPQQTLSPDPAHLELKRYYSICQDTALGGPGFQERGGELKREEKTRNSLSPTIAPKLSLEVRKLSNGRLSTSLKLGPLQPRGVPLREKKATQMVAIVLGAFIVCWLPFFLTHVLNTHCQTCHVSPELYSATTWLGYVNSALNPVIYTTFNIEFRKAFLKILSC

[9] = biological target: T7, Alpha-2A adrenergic receptor (Homo sapiens, UniProt P08913); experiment: Binding affinity for human cloned Alpha-2A adrenergic receptor
T7 sequence (P08913 whole entry): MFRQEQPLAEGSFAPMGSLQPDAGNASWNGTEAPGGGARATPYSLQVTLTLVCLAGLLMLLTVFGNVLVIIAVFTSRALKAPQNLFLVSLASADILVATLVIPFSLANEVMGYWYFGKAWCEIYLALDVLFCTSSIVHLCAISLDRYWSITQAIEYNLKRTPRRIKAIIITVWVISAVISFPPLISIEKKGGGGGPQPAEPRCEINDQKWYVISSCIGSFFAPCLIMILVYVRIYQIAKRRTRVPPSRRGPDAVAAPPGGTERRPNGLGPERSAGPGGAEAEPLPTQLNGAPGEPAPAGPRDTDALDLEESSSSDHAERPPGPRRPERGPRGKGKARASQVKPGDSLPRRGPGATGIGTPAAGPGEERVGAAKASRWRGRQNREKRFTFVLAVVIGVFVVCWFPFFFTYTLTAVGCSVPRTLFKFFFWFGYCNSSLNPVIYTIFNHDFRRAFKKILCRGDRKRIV

[10] = biological target: Serotonin 3 (5-HT3) receptor; experiment: Binding affinity for human cloned 5-hydroxytryptamine 3 receptor; format: protein-complex assay
D(2) dopamine receptor [11] = biological target: D(2) dopamine receptor (Rattus norvegicus, UniProt P61169); experiment: Binding affinity for rat Dopamine receptor D2
Chain of D(2) dopamine receptor (Rattus norvegicus, UniProt P61169) (P61169 whole entry): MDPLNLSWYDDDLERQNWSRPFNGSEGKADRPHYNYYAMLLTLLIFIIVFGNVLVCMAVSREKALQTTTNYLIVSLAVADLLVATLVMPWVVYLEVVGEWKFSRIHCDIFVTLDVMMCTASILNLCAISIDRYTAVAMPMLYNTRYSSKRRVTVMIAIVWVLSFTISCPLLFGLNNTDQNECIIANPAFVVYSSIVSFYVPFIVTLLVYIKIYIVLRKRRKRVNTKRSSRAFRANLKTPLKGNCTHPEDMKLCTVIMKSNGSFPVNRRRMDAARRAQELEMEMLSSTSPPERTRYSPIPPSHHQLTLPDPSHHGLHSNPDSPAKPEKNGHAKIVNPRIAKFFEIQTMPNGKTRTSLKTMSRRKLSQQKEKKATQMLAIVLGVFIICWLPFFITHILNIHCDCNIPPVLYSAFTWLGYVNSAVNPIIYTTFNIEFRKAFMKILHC

[12] = Rattus norvegicus, sc, read-out: ED50

Structure (SMILES)	IC50 [1] [nM]	IC50 [2] [nM]	ED50 [3] [mg/kg]	IC50 (Histamine H1 receptor) [nM]	further results
CN(C)CC1(C)CC2c3ccccc3Cc3ccccc3N2O1 (stereo in doubt; cis) [listing 1 of 2 here]	–	–	> 2.5	–	–
CN(C)CC1CC2c3ccccc3Oc3ccc(Cl)cc3N2O1 (stereo not given)	3.8	1.91	> 2.5	102	ED50 (Rattus norvegicus; [12]): > 2.5 mg/kg
O=C1c2ccccc2C(=O)N1CC1CC2c3ccccc3Cc3ccccc3N2O1 (stereo not given)	> 1000	> 1000	> 2.5	> 1000	–
Clc1cccc(N2CCN(CC3CC4c5ccccc5Cc5ccccc5N4O3)CC2)c1 (stereo not given)	> 1000	> 1000	> 2.5	> 1000	–
c1ccc(N2CCN(CC3CC4c5ccccc5Cc5ccccc5N4O3)CC2)cc1 (stereo not given)	> 1000	> 1000	–	> 1000	–
c1ccc2c(c1)CN(CC1CC3c4ccccc4Cc4ccccc4N3O1)C2 (stereo not given)	> 1000	> 1000	> 2.5	> 1000	–
CN(C)CC1(C)CC2c3ccccc3Cc3ccccc3N2O1 (stereo in doubt; cis) [listing 2 of 2 here]	13.8	57.5	–	1.66	–
CN1CCN2c3ccccc3Cc3ccccc3C2C1 (stereo not given) [MIANSERIN]	–	–	2.5	–	IC50 (D(2) dopamine receptor [6]): 7080 nM; IC50 [7]: 42.7 nM; IC50 [8]: 380 nM; ED50 (Rattus norvegicus; [12]): 0.16 mg/kg
CN(C)CCCCC1CC2c3ccccc3Cc3ccccc3N2O1 (stereo not given)	> 1000	> 1000	> 2.5	> 1000	–
CN(C)C(=O)C1CC2c3ccccc3Cc3ccccc3N2O1 (stereo not given)	> 1000	> 1000	> 2.5	> 1000	–
c1ccc2c(c1)Cc1ccccc1N1OC(CN3CCNCC3)CC21 (stereo not given)	> 1000	> 1000	> 2.5	> 1000	–

Second part, led by results:

IC50 [1] [nM]	IC50 [2] [nM]	ED50 [3] [mg/kg]	IC50 (Histamine H1 receptor) [nM]	Structure (SMILES)	further results
> 1000	282	> 2.5	–	CN1CCN(CC2CC3c4ccccc4Cc4ccccc4N3O2)CC1 (stereo not given)	ED50 (Rattus norvegicus; [12]): > 2.5 mg/kg
> 1000	141	–	26.3	c1ccc2c(c1)Cc1ccccc1N1OC(CN3CCOCC3)CC21 (stereo not given)	ED50 (Rattus norvegicus; [12]): 2.5 mg/kg
16.2	25.1	> 2.5	3.02	c1ccc2c(c1)Cc1ccccc1N1OC(CN3CCCC3)CC21 (stereo not given)	ED50 (Rattus norvegicus; [12]): > 2.5 mg/kg
12.3	22.9	–	6.76	CN(C)CC1CC2c3ccccc3Cc3ccccc3N2O1 (stereo in doubt; 2a)	IC50 (D(4) dopamine receptor): 132 nM; IC50 [4]: 977 nM; IC50 [5]: 537 nM; IC50 (D(2) dopamine receptor [6]): 871 nM; IC50 [7]: 1860 nM; IC50 [8]: 661 nM; IC50 (D(3) dopamine receptor): 170 nM; IC50 [9]: 372 nM; ED50 (Rattus norvegicus): 0.04 mg/kg; pIC50 [10]: 5.92; IC50 (D(2) dopamine receptor [11]): 195 nM
18.6	3.89	> 2.5	676	CN(C)CCCC1CC2c3ccccc3Cc3ccccc3N2O1 (stereo not given)	–
37.2	91.2	2.5	83.2	CN(C)CCC1CC2c3ccccc3Cc3ccccc3N2O1 (stereo not given)	IC50 [4]: > 1000 nM; IC50 [5]: 1910 nM; IC50 (D(2) dopamine receptor [6]): 9550 nM; IC50 [7]: > 1000 nM; IC50 [8]: > 1000 nM; IC50 (D(3) dopamine receptor): > 1000 nM; IC50 [9]: > 1000 nM; ED50 (Rattus norvegicus; [12]): 2.5 mg/kg; IC50 (D(2) dopamine receptor [11]): > 1000 nM
14.5	42.7	2.5	13.5	CCN(CC)CC1CC2c3ccccc3Cc3ccccc3N2O1 (stereo not given)	–
5.62	15.8	> 2.5	200	NCC1CC2c3ccccc3Cc3ccccc3N2O1 (stereo not given)	–
> 1000	> 1000	–	> 1000	CN(C)CC1CC2c3ccccc3Cc3ccccc3N2O1 (trans isomer)	ED50 (Rattus norvegicus): >2.5 mg/kg
324	> 1000	> 2.5	151	CC(C)N(CC1CC2c3ccccc3Cc3ccccc3N2O1)C(C)C (stereo not given)	–
–	–	> 2.5	–	CN(C)CC1(C)CC2c3ccccc3Cc3ccccc3N2O1 (stereo in doubt; trans) [listing 1 of 2 here]	–
692	> 1000	> 2.5	> 1000	CN(CC1CC2c3ccccc3Cc3ccccc3N2O1)C(=O)C(F)(F)F (stereo not given)	–
933	> 1000	–	61.7	CN(C)CC1(C)CC2c3ccccc3Cc3ccccc3N2O1 (stereo in doubt; trans) [listing 2 of 2 here]	ED50 (Rattus norvegicus; [12]): > 2.5 mg/kg

Source: ChEMBL document CHEMBL1135380, “Synthesis and structure-activity relationship of 2-(aminoalkyl)-2,3,3a,8-tetrahydrodibenzo[c,f]isoxazolo[2,3-a]azepine derivatives: a novel series of 5-HT(2A/2C) receptor antagonists. Part 1” (Bioorg Med Chem Lett, 2002)
